Laboratory results published in ChEMBL document CHEMBL6120949, “Fully Synthetic TF-Based Self-Adjuvanting Vaccine Simultaneously Triggers iNKT Cells and Mincle and Protects Mice against Tumor Development” (2024).
The source made the active and inactive calls. No cut-off for these calls is given here.

Legend:
Mus musculus [1] = assay: Antitumor activity in cyclophosphamide-treated Balb/c mouse assessed as rejection of tumor compound administered as liposomes subcutaneously on day 0 in presence of TF followed by administration of booster doses on days 14, 21 and 28 and implantation of mouse TA3/Ha cells on day 35 measured upto 50 days post-tumor challenge followed by re-implantation of another mouse TA3/Ha cells measured for another 100 days post-tumor challenge; format: functional, organism-based; settings: route sc, time 185.0 day
[2] = target: T1, C-type lectin domain family 4 member E (Homo sapiens) (UniProt Q9ULY5); assay: Binding affinity to Fc-fused human Mincle incubated for 1.5 hrs by ELISA
T1 sequence (whole entry): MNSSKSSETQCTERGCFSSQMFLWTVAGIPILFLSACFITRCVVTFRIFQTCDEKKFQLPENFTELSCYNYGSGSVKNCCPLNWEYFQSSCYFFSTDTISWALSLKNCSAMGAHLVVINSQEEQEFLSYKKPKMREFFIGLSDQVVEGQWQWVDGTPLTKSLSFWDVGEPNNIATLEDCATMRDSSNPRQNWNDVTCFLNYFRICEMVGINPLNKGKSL

4T1-Luc [3] = assay: Binding ability of anti-serum derived from compound-vaccinated mouse to TF-positive mouse 4T1-Luc cells cultured with FITC-labeled anti-IgG Ab assessed as positive fluorescent peak shift by FACS analysis; format: functional, cell-based
TA3/Ha [4] = assay: Binding ability of anti-serum derived from compound-vaccinated mouse to TF-positive mouse TA3/Ha cells cultured with FITC-labeled anti-IgG Ab assessed as positive fluorescent peak shift by FACS analysis; format: functional, cell-based
[5] = target: T2, Antigen-presenting glycoprotein CD1d1 (Mus musculus) (UniProt P11609); assay: Binding affinity to His-tagged mouse CD1d incubated for 1.5 hrs by ELISA
T2 sequence (whole entry): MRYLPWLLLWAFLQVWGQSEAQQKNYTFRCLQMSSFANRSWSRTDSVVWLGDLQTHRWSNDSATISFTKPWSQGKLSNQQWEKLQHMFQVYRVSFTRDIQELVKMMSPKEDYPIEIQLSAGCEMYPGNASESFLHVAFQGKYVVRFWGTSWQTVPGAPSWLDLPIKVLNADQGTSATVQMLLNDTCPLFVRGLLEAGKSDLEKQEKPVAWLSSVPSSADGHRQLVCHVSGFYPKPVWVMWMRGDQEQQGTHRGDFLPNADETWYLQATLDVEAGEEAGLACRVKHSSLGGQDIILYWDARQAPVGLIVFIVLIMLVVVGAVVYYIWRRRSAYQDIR

Mus musculus [6] = assay: Immunization of Balb/c mouse assessed as IgG titer compound administered as liposomes subcutaneously on day 0 in presence of TF followed by administration of booster doses on days 14, 21 and 28 measured on days 21, 27 and 38 by ELISA; format: functional; settings: route sc; time 38 day
Mus musculus [7] = assay: Antitumor activity in cyclophosphamide-treated surviving Balb/c mouse assessed as increase in IgG antibody titer compound administered as liposomes subcutaneously on day 0 in presence of TF followed by administration of booster doses on days 14, 21 and 28 and implantation of mouse TA3/Ha cells on day 35 measured upto 50 days post-tumor challenge followed by re-implantation of another mouse TA3/Ha cells measured for another 30 days post-tumor challenge by ELISA; format: functional, organism-based; settings: route sc, time <= 115.0 day
4T1-Luc [8] = assay: Cytotoxicity against TF-positive mouse 4T1-Luc cells treated with anti-serum derived from compound-vaccinated mouse for 2 hrs followed by anti-serum washout and addition of rabbit complement serum measured after 1 hr by LDH assay; format: functional, cell-based
Mus musculus [9] = assay: (§1) Antitumor activity in Balb/c mouse assessed as average survival time compound administered as liposomes subcutaneously on day 0 in presence of TF followed by administration of booster doses on days 14, 21 and 28 and implantation of mouse TA3/Ha cells on day 35 measured upto 50 days post-tumor challenge; format: functional; settings: route sc; time <= 85 day
MDA-MB-468 [10] = assay: Binding ability of anti-serum derived from compound-vaccinated mouse to TF-negative human MDA-MB-468 cells cultured with FITC-labeled anti-IgG Ab assessed as positive fluorescent peak shift by FACS analysis; format: functional, cell-based
Mus musculus [11] = assay: as §1, with “activity in cyclophosphamide-treated Balb/c mouse” for “activity in Balb/c mouse”; format: functional; settings: route sc; time <= 85 day
Mus musculus [12] = assay: as §1, with “as” for “as average”, “ratio” for “time”, “challenge relative to control” for “challenge”; format: functional; settings: route sc; time <= 85 day
Mus musculus [13] = assay: Immunization of Balb/c mouse assessed as increase in kappa light chain titer compound administered as liposomes subcutaneously on day 0 in presence of TF followed by administration of booster doses on days 14, 21 and 28 measured on days 21, 27 and 38 by ELISA; format: functional, organism-based; settings: route sc, time 38.0 day
Mus musculus [14] = assay: Immunization of Balb/c mouse assessed as increase in IgG2a titer compound administered as liposomes subcutaneously on day 0 in presence of TF followed by administration of booster doses on days 14, 21 and 28 measured on days 21, 27 and 38 by ELISA; format: functional, organism-based; settings: route sc, time 38.0 day
TA3/Ha [15] = assay: Binding ability of anti-serum derived from compound-vaccinated surviving mouse to TF-positive mouse TA3/Ha cells cultured with FITC-labeled anti-IgG Ab assessed as positive fluorescent peak shift by FACS analysis; format: functional, cell-based
Mus musculus [16] = assay: Antitumor activity in cyclophosphamide-treated Balb/c mouse assessed as survival ratio compound administered as liposomes subcutaneously on day 0 in presence of TF followed by administration of booster doses on days 14, 21 and 28 and implantation of mouse TA3/Ha cells on day 35 measured upto 50 days post-tumor challenge relative to control; format: functional; settings: route sc; time <= 85 day
MDA-MB-468 [17] = assay: Cytotoxicity against TF-negative human MDA-MB-468 cells treated with anti-serum derived from compound-vaccinated mouse for 2 hrs followed by anti-serum washout and addition of rabbit complement serum measured after 1 hr by LDH assay; format: functional, cell-based
Mus musculus [18] = assay: Immunization of Balb/c mouse assessed as increase in IFN-gamma level compound administered as liposomes subcutaneously on day 0 in presence of TF followed by administration of booster doses on days 14, 21 and 28 measured on days 21, 27 and 38 by ELISA; format: functional, organism-based; settings: route sc, time 38.0 day
TA3/Ha [19] = assay: Cytotoxicity against TF-positive mouse TA3/Ha cells treated with anti-serum derived from compound-vaccinated mouse for 2 hrs followed by anti-serum washout and addition of rabbit complement serum measured after 1 hr by LDH assay; format: functional, cell-based
Mus musculus [20] = assay: Immunization of Balb/c mouse assessed as increase in IgG titer compound administered as liposomes subcutaneously on day 0 in presence of TF followed by administration of booster doses on days 14, 21 and 28 measured on days 21, 27 and 38 by ELISA; format: functional, organism-based; settings: route sc, time 38.0 day
Mus musculus [21] = assay: Antitumor activity in cyclophosphamide-treated Balb/c mouse assessed as protection against tumor development compound administered as liposomes subcutaneously on day 0 in presence of TF followed by administration of booster doses on days 14, 21 and 28 and implantation of mouse TA3/Ha cells on day 35 measured upto 50 days post-tumor challenge; format: functional, organism-based; settings: route sc, time <= 85.0 day
Mus musculus [22] = assay: Immunization of Balb/c mouse assessed as decrease in TF-specific IgM titer compound administered as liposomes subcutaneously on day 0 in presence of TF followed by administration of booster doses on days 14, 21 and 28 measured on days 21, 27 and 38 by ELISA; format: functional, organism-based; settings: route sc, time 38.0 day
Mus musculus [23] = assay: Immunization of Balb/c mouse assessed as IFN-gamma level compound administered as liposomes subcutaneously on day 0 in presence of TF followed by administration of booster doses on days 14, 21 and 28 measured on days 21, 27 and 38 by ELISA; format: functional; settings: route sc; time 38 day

## CCCCCCCCCCCCCCCCCCCCCCCCCC(=O)N[C@@H](CO[C@H]1O[C@H](CNC(=O)CCCCC(=O)NCCCC[C@H](NC(=O)CCC(=O)NCCOCCO[C@H]2[C@H](O)[C@@H](O)[C@@H](O[C@H]3O[C@H](COC(=O)CC(CCCCCCCCC)CCCCCCCCC)[C@@H](O)[C@H](O)[C@H]3O)O[C@@H]2COC(=O)CC(CCCCCCCCC)CCCCCCCCC)C(=O)NCc2cn(CCO[C@H]3O[C@H](CO)[C@H](O)[C@H](O[C@@H]4O[C@H](CO)[C@H](O)[C@H](O)[C@H]4O)[C@H]3NC(C)=O)nn2)[C@H](O)[C@H](O)[C@H]1O)[C@H](O)[C@H](O)CCCCCCCCCCCCCC
Mus musculus [1]
  Activity: Active
[2]
  Activity: Active
4T1-Luc [3]
  Activity: Active; Compound-Derived Antibodies In Antiserum Exhibited Strongest Binding Activity
TA3/Ha [4]
  Activity: Active; Compound-Derived Antibodies In Antiserum Exhibited Strongest Binding Activity
[5]
  Activity: Active
Mus musculus [6]
  Activity: 96611
Mus musculus [7]
  Activity: Active; Exhibited Superior Effect
4T1-Luc [8]
  Activity: Active; Result Reveals That The Anti-Serum Induced By Compound Effectively Activated The Complement System
Mus musculus [9]
  Time: 34.5 days
MDA-MB-468 [10]
  Activity: inactive
Mus musculus [11]
  Time: 43.8 days
Mus musculus [12]
  Survival: 37.5%
Mus musculus [13]
  Activity: Active; Compound Induced Strong Tf-Specific And T-Cell-Dependent Immune Response
Mus musculus [14]
  Activity: Active
TA3/Ha [15]
  Activity: Active
Mus musculus [16]
  Survival: 75%
MDA-MB-468 [17]
  Activity: inactive
Mus musculus [18]
  Activity: Active
TA3/Ha [19]
  Activity: Active; Result Reveals That The Anti-Serum Induced By Compound Effectively Activated The Complement System
Mus musculus [20]
  Activity: Active
Mus musculus [21]
  Activity: Active
Mus musculus [22]
  Activity: Active; Result Reveals That Efficient Conversion Of Igm To Igg Had Occurred And That Long-Term Secondary Immune Responses Had Been Triggered
Mus musculus [23]
  Activity: 263 pg/mL

## CCCCCCCCCCCCCCCCCCCCCCCCCC(=O)N[C@@H](CO[C@H]1O[C@H](CNC(=O)CCCCC(=O)NCc2cn(CCO[C@H]3O[C@H](CO)[C@H](O)[C@H](O[C@@H]4O[C@H](CO)[C@H](O)[C@H](O)[C@H]4O)[C@H]3NC(C)=O)nn2)[C@H](O)[C@H](O)[C@H]1O)[C@H](O)[C@H](O)CCCCCCCCCCCCCC
Mus musculus [1]
  Activity: Active
4T1-Luc [3]
  Activity: Active
TA3/Ha [4]
  Activity: Active
[5]
  Activity: Active
Mus musculus [6]
  Activity: 54112
Mus musculus [7]
  Activity: Active
4T1-Luc [8]
  Activity: Active; Result Reveals That The Anti-Serum Induced By Compound Effectively Activated The Complement System
MDA-MB-468 [10]
  Activity: inactive
Mus musculus [11]
  Time: 34.4 days
Mus musculus [13]
  Activity: Active; Compound Induced Strong Tf-Specific And T-Cell-Dependent Immune Response
TA3/Ha [15]
  Activity: Active
Mus musculus [16]
  Survival: 37.5%
MDA-MB-468 [17]
  Activity: inactive
Mus musculus [18]
  Activity: Active
TA3/Ha [19]
  Activity: Active; Result Reveals That The Anti-Serum Induced By Compound Effectively Activated The Complement System
Mus musculus [20]
  Activity: Active
Mus musculus [21]
  Activity: Active
Mus musculus [22]
  Activity: Active; Result Reveals That Efficient Conversion Of Igm To Igg Had Occurred And That Long-Term Secondary Immune Responses Had Been Triggered

## CCCCCCCCCC(CCCCCCCCC)CC(=O)OC[C@H]1O[C@H](O[C@H]2O[C@H](COC(=O)CC(CCCCCCCCC)CCCCCCCCC)[C@@H](OCCOCCNC(=O)CCC(=O)NCc3cn(CCO[C@H]4O[C@H](CO)[C@H](O)[C@H](O[C@@H]5O[C@H](CO)[C@H](O)[C@H](O)[C@H]5O)[C@H]4NC(C)=O)nn3)[C@H](O)[C@H]2O)[C@H](O)[C@@H](O)[C@@H]1O
Mus musculus [1]
  Activity: Active
[2]
  Activity: Active
4T1-Luc [3]
  Activity: Active
TA3/Ha [4]
  Activity: Active
Mus musculus [6]
  Activity: 66937
Mus musculus [7]
  Activity: Active
4T1-Luc [8]
  Activity: Active; Result Reveals That The Anti-Serum Induced By Compound Effectively Activated The Complement System
MDA-MB-468 [10]
  Activity: inactive
Mus musculus [11]
  Time: 38.8 days
Mus musculus [13]
  Activity: Active; Compound Induced Strong Tf-Specific And T-Cell-Dependent Immune Response
TA3/Ha [15]
  Activity: Active
Mus musculus [16]
  Survival: 50%
MDA-MB-468 [17]
  Activity: inactive
Mus musculus [18]
  Activity: Active
TA3/Ha [19]
  Activity: Active; Result Reveals That The Anti-Serum Induced By Compound Effectively Activated The Complement System
Mus musculus [20]
  Activity: Active
Mus musculus [21]
  Activity: Active
Mus musculus [22]
  Activity: Active; Result Reveals That Efficient Conversion Of Igm To Igg Had Occurred And That Long-Term Secondary Immune Responses Had Been Triggered
